# Results as given in patent US10681911B2, “Anthelminthic composition” (AgResearch Limited, priority 2016, dated 2020).
# Key:
# [1] = tested on: eggs of free-living parasitic nematodes; assay: Egg hatch assay
# Method: Approximately 125 eggs were place in 24 well plate wells and treatments applied. After 24 hours, unhatched eggs and larvae were numerated by microscopic examination. Town supply tap water was used for solution preparation and used as the reference control treatment Sodium hypochlorite was added to tap-water to form a bleach solution containing 5% w/v NaOCl […]
# [2] = tested on: nematode egg and larval stages in dung; assay: Mini dung egg hatch-survival assay; details: treatments applied to fresh dung on days 0 through 7, harvested days 12-16
# Method: All the dung samples were then left until day 12 when the first replicates were harvested. The last replicate was sampled on day 16. Hatched larvae were separated from the dung and numerated via microscopic examination. Town supply tap water was used for solution preparation and used as the reference control treatment. Sodium hypochlorite was added to tap-water to form a bleach solution containing 5% w/v NaOCl.
# Haemonchus controtus L3 = assay: Petri-dish laboratory study of efficacy against L3; details: for Measured efficacy: 24 ml solution, live L3 recovered by Baermann funnel, 10 replicates; for effectiveness in killing L3: result in words
# Haemonchus contortus L3 = details: in vivo
# [3] = format: physicochemical
molecule,measurement,setting,value
"OCl [Bleach, Sodium hypochlorite]",effect on eggs and egg hatching,"[1]; after 24 hours, result in words",destroyed all the eggs
same,Average of % hatch,"[1]; approximately 125 eggs per well, after 24 hours",0.0%
same,Average of larvae,"[1]; approximately 125 eggs per well, larvae counted after 24 hours",0.0
same,Average of eggs,"[1]; approximately 125 eggs per well, unhatched eggs counted after 24 hours",0.3
same,impact on nematode development in dung,[2],"small impact on all stage of the nematode development from the egg through to the L1, 2 and 3 stages"
"[Ca+2].[OH-].[OH-] [Ca(OH)2 0.1%, calcium hydroxide]",Measured efficacy,Haemonchus controtus L3; listed as Ca(OH)2 0.100%,93%
same,effectiveness in killing L3,Haemonchus controtus L3,effective in killing L3
same,impact on L3 numbers in faeces,Haemonchus contortus L3,Neither ammonium nitrate nor calcium hydroxide applied alone or in combination had any impact on L3 numbers in faeces
same,impact on L3 numbers on pasture,Haemonchus contortus L3,neither ammonium nitrate nor calcium hydroxide applied alone had any impact on L3 numbers on pasture
same,pH 0,[3],12.0
"[Ca+2].[OH-].[OH-] [Ca(OH)2 0.05%, calcium hydroxide]",Measured efficacy,Haemonchus controtus L3; listed as Ca(OH)2 0.050%,69%
same,pH 0,[3],11.6
"[Ca+2].[OH-].[OH-] [Ca(OH)2 0.013%, calcium hydroxide]",Measured efficacy,Haemonchus controtus L3,28%
same,pH 0,[3],11.0
"[Ca+2].[OH-].[OH-] [Ca(OH)2 0.025%, calcium hydroxide]",Measured efficacy,Haemonchus controtus L3,43%
same,pH 0,[3],11.3
ammonium nitrate [NH4NO3 1.75%],Measured efficacy,Haemonchus controtus L3,−39%
ammonium nitrate [NH4NO3 3.5%],Measured efficacy,Haemonchus controtus L3,12%
ammonium nitrate [NH4NO3 7%],Measured efficacy,Haemonchus controtus L3,72%
ammonium nitrate [NH4NO3 13.5%],Measured efficacy,Haemonchus controtus L3,97%
same,effectiveness in killing L3,Haemonchus controtus L3,effective in killing L3
